{
  "source": "patent US8080235B2",
  "about": "“Protein kinase A reporters useful in high throughput assays” (The Johns Hopkins University, priority 2005, dated 2011)",
  "type_in_all_cases": "cell-based",
  "key": {"PKA activity [1]": {"tested_on": "PKA activity", "assay": "AKAR3 live cell 96-well plate reader assay (yellow/cyan emission ratio)", "experimental": "(§1) Live Cell Plate Reading. HEK-293 cells were transfected with AKAR3 or ICUE3 using calcium phosphate at 40% confluency and grown for 40 hours. Cells were then trypsinized and plated in a Costar 3603 96-well plate (Corning) at a density of 150,000 cells per well. After incubation for another 24 hours, cells were washed once with HBSS and left in 150 μl of HBSS at 20-25° C. Fluorescence reading was taken on a FLUOstar OPTIMA fluorescence microplate reader (BMG Labtechnologies Inc.) using a 420DF20 excitation filter and two emission filters (470DF40 for cyan and 535DF25 for yellow). A baseline was established in three cycles, each consisting of a full plate reading of yellow intensity, followed by a reading of cyan intensity.\n(§2) Each cycle lasted between 64 and 92 seconds. Cells were then treated with ISO, Fsk, H89, Propranolol (Pro; Sigma), or 3-isobutyl-1-methylxanthine (IBMX; Sigma) as indicated. Readings were taken in additional cycles. FRET change was calculated as the percent increase of emission ratios (yellow-to-cyan for AKAR and cyan-to-yellow for ICUE) over baseline for each well during a given cycle. Several parameters were calculated to assess the efficiency of the assay, including Z′ factor, coefficient of variation, and signal to noise (S/N) ratio (22).\nAKAR2 (FIG. 4). This reporter, AKAR3 (FIG. 1b), was tested in a 96-well plate format. […] As negative controls, addition of buffer of 2% DMSO generated minimal changes in emission ratios. This 96-well plate assay was sensitive and reproducible, with a signal to noise ratio of 30.3, a Z′ factor of 0.84, and a coefficient of variation (CV) of 1.8% for the Fsk-stimulated response.\nTo provide specific readout of compartmentalized PKA activities, we introduced a C-terminal nuclear export signal (NES) to AKAR3 . In the plate reader assay using AKAR3 -NES (FIG. 1d), cytosolic PKA activity was recorded without contamination of nuclear activity, which has slower kinetics due to diffusional translocation of the catalytic subunit from cytosol to nucleus. […] Thus, sensor targeting provides increased temporal and spatial resolution and can be used to reveal how individual signaling microdomains, such as kinase-containing signaling complexes, are affected by drugs or other perturbations, adding another level of capacity to the non-image-based high-throughput assays of the invention."}, "PKA activity [2]": {"tested_on": "PKA activity", "assay": "AKAR3 high-throughput screening of Johns Hopkins Clinical Compound Library", "conditions": "10 μM compound about 15 min, then 0.25 μM ISO", "experimental": "Live Cell High-Throughput Screening. […] After incubation for 24 hours, cells were washed once with HBSS and left in 190 μl of HBSS at 20-25° C. Fluorescence readings were taken as described above, with each cycle lasting 90 seconds. Following baseline acquisition, cells in each experimental well were treated with a compound from the Johns Hopkins Clinical Compound Library to a final concentration of 10 μM. Control cells were treated with 10 μL of 10% fetal bovine serum (FBS) in a solution of phosphate buffered saline (PBS) at pH 7.4, which is the solution used to dissolve library compounds.\nTen final cycles were then performed.\nFRET responses were calculated as described above. […] Agonist hits were defined as compounds eliciting responses larger than six times the standard deviation above the baseline. Antagonist hits were defined as compounds which decreased the ISO stimulated response by 50% or by six times the standard deviation.\nIn a primary screening, 160 compounds from the Johns Hopkins Clinical Compound Library were added to AKAR3-expressing HEK-293 cells in individual wells of 96-well plates to a final concentration of 10 μM after a base line reading. Time courses were recorded to monitor any fluorescence changes upon drug addition and to identify hits which activate PKA as potential agonists.\nPotential agonists were identified by selecting compounds which stimulated emission ratio changes larger than 6 times the standard deviation above the negative control (FIG. 3a )."}, "cAMP [3]": {"tested_on": "cAMP", "assay": "ICUE high-throughput screening of Johns Hopkins Clinical Compound Library (stable cells)", "conditions": "10 μM compound, then 0.25 μM Iso plus 100 μM IBMX", "experimental": "Live Cell High-Throughput Screening. HEK-293 cells transiently expressing AKAR or stably expressing ICUE were trypsinized and plated in a Costar 3606 96-well plate (Corning) at a density of 150,000 cells per well. After incubation for 24 hours, cells were washed once with HBSS and left in 190 μl of HBSS at 20-25° C. Fluorescence readings were taken as described above, with each cycle lasting 90 seconds. Following baseline acquisition, cells in each experimental well were treated with a compound from the Johns Hopkins Clinical Compound Library to a final concentration of 10 μM. Control cells were treated with 10 μL of 10% fetal bovine serum (FBS) in a solution of phosphate buffered saline (PBS) at pH 7.4, which is the solution used to dissolve library compounds.\nReadings were taken for 10 cycles spanning a time of approximately 15 minutes, after which cells in experimental wells and positive controls were treated with 0.25 μM ISO (AKAR) or 0.25 μM Iso plus 100 μM IBMX (ICUE), while negative controls received 0.5% DMSO in HBSS. Ten final cycles were then performed.\nFRET responses were calculated as described above. Negative control (10% FBS, 0.5% DMSO) and positive control (10% FBS, 0.25 μM ISO) curves were generated. Agonist hits were defined as compounds eliciting responses larger than six times the standard deviation above the baseline. […]"}, "cAMP [4]": {"tested_on": "cAMP", "assay": "ICUE3 live cell high-throughput cAMP plate reader assay (cyan/yellow emission ratio)", "experimental": "as §1, §2\nTo follow the activity of the signaling pathway and to assay related drug targets in parallel, we developed a live cell-based high-throughput assay for cAMP, a second messenger that is generated via activation of Gs-coupled GPCRs and exerts its effects by activating PKA and other effectors. Similar improvement approaches were first applied to create a reporter that more than doubled the response of previous “Indicator for cAMP Using Epac” (ICUE), which generates a decrease in FRET upon binding of cAMP (FIG. 5). […] Possible sources of the variation and reduced signal are transfection efficiency and expression variability."}},
  "data": [
    {"smiles": "CC(C)NCC(O)COc1cccc2ccccc12", "note": "(stereo not drawn) [Pro, propranolol]", "values": [
      {"measurement": "effect on ISO-induced AKAR3 response", "setting": "PKA activity [1]; 10 μM Pro, FIG. 2", "result": "inhibited"},
      {"measurement": "effect on Fsk-stimulated AKAR3 response", "setting": "PKA activity [1]; FIG. 2d", "result": "no effect"},
      {"measurement": "antagonist screen: effect on ISO-stimulated AKAR response", "setting": "PKA activity [2]", "result": "potently inhibited"},
      {"measurement": "antagonist screen: effect on ISO-stimulated ICUE response", "setting": "cAMP [3]", "result": "potently inhibited"},
      {"measurement": "effect on Fsk-stimulated ICUE3 response", "setting": "cAMP [4]; FIG. 2c", "result": "no effect"},
      {"measurement": "effect on ISO-induced ICUE3 response", "setting": "cAMP [4]; co-treatment, 10 μM Pro, FIG. 2a", "result": "inhibited"}
    ]}
  ]
}
